Results as given in publication PMC7915026, “Sulfaguanidine Hybrid with Some New Pyridine-2-One Derivatives: Design, Synthesis, and Antimicrobial Activity against Multidrug-Resistant Bacteria as Dual DNA Gyrase and DHFR Inhibitors” (Antibiotics, 2021).
Values after ≈ are worked out from the molar mass of the structure shown. Like-named read-outs stand apart in the source and are kept apart here.

What was measured:
Assay type in all cases: cell-based
E. faecalis ATCC 29212 [1] = test: MIC and MBC determination
P. aeruginosa ATCC 27853 [2] = test: MIC and MBC determination; details: Pseudomonas aeruginosa, ATCC27853
[3] = system: Gram-positive and Gram-negative bacteria
[4] = system: Salmonella typhi (S. typhi ATCC 6539); test: microbe, parasite or virus in culture; details: Salmonella enterica
B. subtilis ATCC 6633 [5] = test: MIC and MBC determination
S. typhi ATCC 6539 = test: Inhibition zone, paper disk/agar diffusion
Text: (§1) The antimicrobial activity performed at the bacteriology laboratory, Botany and Microbiology Department, Faculty of Science, Al-Azhar University, Cairo, Egypt. The inhibition zone (IZ) of the tested derivatives expressed as the diameter (mm) according to the agar plate diffusion method.

B. subtilis ATCC 6633 [6] = test: Inhibition zone, paper disk/agar diffusion
Text: as §1

P. aeruginosa ATCC 27853 [7] = test: Inhibition zone, paper disk/agar diffusion
Text: as §1

E. coli ATCC 25922 [8] = test: Inhibition zone, paper disk/agar diffusion
Text: as §1

S. aureus ATCC 29213 [9] = test: Inhibition zone, paper disk/agar diffusion
Text: as §1

E. faecalis ATCC 29212 [10] = test: Inhibition zone, paper disk/agar diffusion
Text: as §1

S. aureus ATCC 29213 [11] = test: MIC and MBC determination; details: Staphylococcus aureus, ATCC29213
E. coli ATCC 25922 [12] = test: MIC and MBC determination
[13] = Enterococcus faecalis, ATCC29212
[14] = Gram-negative: E. coli, P. aeruginosa, S. typhi

SMILES: CN(C)[C@@H]1C(O)=C(C(N)=O)C(=O)[C@@]2(O)C(O)=C3C(=O)c4c(O)cccc4[C@@](C)(O)[C@H]3C[C@@H]12 [Tetracycline, tetracycline, reference compound]
- MBC (E. faecalis ATCC 29212 [1]): 210.9 ± 1.78 µM (≈ 93.7 µg/mL)
- MIC (E. faecalis ATCC 29212 [1]): 140.6 ± 1.98 µM (≈ 62.5 µg/mL)
- MBC (E. faecalis ATCC 29212 [1]; [13]): 211 µM (≈ 93.7 µg/mL)
- MIC (E. faecalis ATCC 29212 [1]; [13]): 141 µM (≈ 62.5 µg/mL)
- MBC (P. aeruginosa ATCC 27853 [2]): 197 ± 2.36 µM (≈ 87.5 µg/mL)
- MIC (P. aeruginosa ATCC 27853 [2]): 141 ± 2.85 µM (≈ 62.5 µg/mL)
- MBC range [3, 14]: 42.16 to 196.89 µM
- MIC range [3, 14]: 35.14 to 140.6 µM
- MBC range ([3]; Gram-positive bacteria): 91.40 to 210.9 µM
- MIC range ([3]; Gram-positive bacteria): 70.31 to 140.63 µM
- MBC [4]: 98.44 ± 0.87 µM (≈ 43.8 µg/mL)
- MIC [4]: 70.3 ± 1.06 µM (≈ 31.2 µg/mL)
- MBC (B. subtilis ATCC 6633 [5]): 91.40 ± 2.89 µM (≈ 40.6 µg/mL)
- MIC (B. subtilis ATCC 6633 [5]): 70.31 ± 2.65 µM (≈ 31.2 µg/mL)
- MBC (B. subtilis ATCC 6633 [5]; Bacillus subtilis, ATCC6633): 91.4 µM (≈ 40.6 µg/mL)
- MIC (B. subtilis ATCC 6633 [5]; Bacillus subtilis, ATCC6633): 70.3 µM (≈ 31.2 µg/mL)
- Mean Diameter of the Inhibition Zone (S. typhi ATCC 6539): 21 ± 0.55 mm
- Mean Diameter of the Inhibition Zone (B. subtilis ATCC 6633 [6]): 25 ± 0.22 mm
- Mean Diameter of the Inhibition Zone (P. aeruginosa ATCC 27853 [7]): 20 ± 0.5 mm
- Mean Diameter of the Inhibition Zone (E. coli ATCC 25922 [8]): 23 ± 0.20 mm
- Mean Diameter of the Inhibition Zone (S. aureus ATCC 29213 [9]): 25 ± 0.11 mm
- Mean Diameter of the Inhibition Zone (E. faecalis ATCC 29212 [10]): 22 ± 0.25 mm
- MBC (S. aureus ATCC 29213 [11]): 197 ± 3.54 µM (≈ 87.5 µg/mL)
- MIC (S. aureus ATCC 29213 [11]): 141 ± 3.21 µM (≈ 62.5 µg/mL)
- MBC (E. coli ATCC 25922 [12]): 42.16 ± 0.92 µM (≈ 18.7 µg/mL)
- MIC (E. coli ATCC 25922 [12]): 35.14 ± 0.87 µM (≈ 15.6 µg/mL)
- MBC (E. coli ATCC 25922 [12]; Escherichia coli, ATCC25922): 42.2 µM (≈ 18.7 µg/mL)
- MIC (E. coli ATCC 25922 [12]; Escherichia coli, ATCC25922): 35.1 µM (≈ 15.6 µg/mL)
